{
  "source": "patent US20080161366A1",
  "about": "“AMINOALKYL SUBSTITUTED ARYL SULFAMIDE DERIVATIVES AND METHODS OF THEIR USE” (Wyeth, priority 2006, published 2008)",
  "note": "Structures can show the parent of a compound that is named as a salt.",
  "data": [
    {"system": "not listed separately", "experiment": "Rat liver microsomal stability assay", "assay_type": "in vitro ADME", "settings": "rat liver microsomes, 37° C., NADPH", "units": {"RLM stability t1/2": "min"}, "values": [
      {"compound": "CNCCCN1c2ccccc2N(c2c(F)cccc2F)S1(=O)=O", "RLM stability t1/2": 2.0}
    ]},
    {"target": "human norepinephrine transporter (hNET) (Homo sapiens, UniProt P23975)", "sequence (P23975 whole entry)": "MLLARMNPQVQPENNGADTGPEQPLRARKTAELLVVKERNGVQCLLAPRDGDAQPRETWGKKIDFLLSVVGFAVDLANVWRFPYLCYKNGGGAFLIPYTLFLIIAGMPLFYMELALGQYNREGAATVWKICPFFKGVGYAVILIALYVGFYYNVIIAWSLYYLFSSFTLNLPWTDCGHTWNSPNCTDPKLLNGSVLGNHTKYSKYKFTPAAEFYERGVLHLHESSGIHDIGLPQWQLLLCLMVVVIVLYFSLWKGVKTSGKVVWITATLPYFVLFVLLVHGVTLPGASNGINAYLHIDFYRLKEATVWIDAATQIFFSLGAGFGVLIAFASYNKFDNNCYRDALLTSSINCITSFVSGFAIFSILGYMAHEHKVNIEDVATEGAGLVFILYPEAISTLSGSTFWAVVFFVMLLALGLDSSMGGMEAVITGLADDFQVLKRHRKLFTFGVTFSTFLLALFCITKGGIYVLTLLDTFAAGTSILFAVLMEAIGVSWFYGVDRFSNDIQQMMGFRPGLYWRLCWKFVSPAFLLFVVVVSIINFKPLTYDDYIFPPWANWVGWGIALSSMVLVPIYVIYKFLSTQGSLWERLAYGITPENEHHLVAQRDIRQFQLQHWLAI", "experiment": "hNET uptake, Protocol B: cell based norepinephrine reuptake assay using recombinant hNET (MDCK-Net6 cells)", "settings": "MDCK-Net6, read-out: NE uptake (Protocol B) % inhibition @ 6 uM", "units": {"inhibition at 6 µM": "%"}, "values": [
      {"compound": "CN(C)CCCCCN1c2ccccc2N(c2ccc(F)cc2Cl)S1(=O)=O", "note": "[Example 90, 5-[3-(2-chloro-4-fluorophenyl)-2,2-dioxido-2,1,3-benzothiadiazol-1(3H)-yl]-N,N-dimethylpentan-1-amine hydrochloride]", "inhibition at 6 µM": 49}
    ]},
    {"target": "human norepinephrine transporter (hNET) (Homo sapiens, UniProt P23975)", "experiment": "hNET uptake, Protocol B: cell based norepinephrine reuptake assay using recombinant hNET (MDCK-Net6 cells)", "settings": "NE uptake (Protocol B) IC50 (nM), MDCK-Net6 cells, 3H-NE 16 nM", "units": {"IC50": "nM"}, "values": [
      {"compound": "CNCCCN1c2ccccc2N(c2ccc(F)cc2Cl)S1(=O)=O", "note": "[Example 60, 3-[3-(2-Chloro-4-fluorophenyl)-2,2-dioxido-2,1,3-benzothiadiazol-1(3H)-yl]-N-methylpropan-1-amine hydrochloride]", "IC50": 40.2},
      {"compound": "CN(C)CCCN1c2c(F)cccc2N(c2ccc(F)cc2F)S1(=O)=O", "note": "[Example 80, 3-[3-(2,4-Difluorophenyl)-7-fluoro-2,2-dioxido-2,1,3-benzothiadiazol-1(3H)-yl]-N,N-dimethylpropan-1-amine hydrochloride]", "IC50": 448},
      {"compound": "CNCCCN1c2ccccc2N(c2ccc(F)c(F)c2)S1(=O)=O", "note": "[Example 109, 3-[3-(3,4-difluorophenyl)-2,2-dioxido-2,1,3-benzothiadiazol-1(3H)-yl]-N-methylpropan-1-amine]", "IC50": 20},
      {"compound": "CCNCCCCN1c2ccccc2N(c2ccc(F)cc2F)S1(=O)=O", "note": "[Example 121, 4-[3-(2,4-difluorophenyl)-2,2-dioxido-2,1,3-benzothiadiazol-1(3H)-yl]-N-ethylbutan-1-amine hydrochloride]", "IC50": 1500},
      {"compound": "CCc1ccc(N2c3ccccc3N(CCCNC)S2(=O)=O)nc1", "note": "[Example 29, 3-[3-(5-ethylpyridin-2-yl)-2,2-dioxido-2,1,3-benzothiadiazol-1(3H)-yl]-N-methylpropan-1-amine hydrochloride]", "IC50": 434},
      {"compound": "O=S1(=O)N(CCCNC2CCNCC2)c2ccccc2N1c1ccccc1F", "note": "[Example 131, N-{3-[3-(2-fluorophenyl)-2,2-dioxido-2,1,3-benzothiadiazol-1(3H)-yl]propyl}piperidin-4-amine dihydrochloride]", "IC50": 365},
      {"compound": "O=S1(=O)N(CCCNC2CCCC2)c2ccccc2N1c1c(F)cccc1F", "note": "[Example 129, N-{3-[3-(2,6-difluorophenyl)-2,2-dioxido-2,1,3-benzothiadiazol-1(3H)-yl]propyl}cyclopentanamine hydrochloride]", "IC50": 195},
      {"compound": "CNCCCCCN1c2ccccc2N(c2ccc(F)cc2F)S1(=O)=O", "note": "[Example 115, 5-[3-(2,4-difluorophenyl)-2,2-dioxido-2,1,3-benzothiadiazol-1(3H)-yl]-N-methylpentan-1-amine hydrochloride]", "IC50": 61},
      {"compound": "CNCCCCCCN1c2ccccc2N(c2ccccc2F)S1(=O)=O", "note": "[Example 101, 6-[3-(2-fluorophenyl)-2,2-dioxido-2,1,3-benzothiadiazol-1(3H)-yl]-N-methylhexan-1-amine]", "IC50": 1160},
      {"compound": "CNCCCN1c2ccc(Cl)cc2N(c2ccccc2)S1(=O)=O", "note": "[Example 36, 3-(5-Chloro-2,2-dioxido-3-phenyl-2,1,3-benzothiadiazol-1(3H)-yl)-N-methylpropan-1-amine]", "IC50": 11.3},
      {"compound": "CCNCCCCN1c2ccccc2N(c2ccc(C)cc2F)S1(=O)=O", "note": "[Example 107, N-ethyl-4-[3-(2-fluoro-4-methylphenyl)-2,2-dioxido-2,1,3-benzothiadiazol-1(3H)-yl]butan-1-amine]", "IC50": 582},
      {"compound": "NCCCN1c2ccccc2N(c2ccccc2F)S1(=O)=O", "note": "[Example 56, 3-[3-(2-fluorophenyl)-2,2-dioxido-2,1,3-benzothiadiazol-1(3H)-yl]propan-1-amine]", "IC50": 13.1},
      {"compound": "CCNCCCN1c2ccccc2N(c2ccc(F)c(F)c2F)S1(=O)=O", "note": "[Example 112, 3-[2,2-dioxido-3-(2,3,4-trifluorophenyl)-2,1,3-benzothiadiazol-1(3H)-yl]-N-ethylpropan-1-amine]", "IC50": 2770},
      {"compound": "CN(C)CCCCN1c2ccccc2N(c2ccc(F)cc2F)S1(=O)=O", "note": "[Example 120, 4-[3-(2,4-difluorophenyl)-2,2-dioxido-2,1,3-benzothiadiazol-1(3H)-yl]-N,N-dimethylbutan-1-amine hydrochloride]", "IC50": 411},
      {"compound": "O=S1(=O)N(CCNC2CCNCC2)c2ccccc2N1c1ccccc1F", "note": "[Example 133, N-{3-[3-(2-fluorophenyl)-2,2-dioxido-2,1,3-benzothiadiazol-1(3H)-yl]ethyl}piperidin-4-amine dihydrochloride]", "IC50": 45},
      {"compound": "CNCCCN1c2ccccc2N(c2ccccc2Cl)S1(=O)=O", "note": "[Example 52, 3-[3-(2-chlorophenyl)-2,2-dioxido-2,1,3-benzothiadiazol-1(3H)-yl]-N-methylpropan-1-amine hydrochloride]", "IC50": 2.74},
      {"compound": "CNCCCN1c2ccccc2N(c2cccc(F)c2)S1(=O)=O", "note": "[Example 12, 3-[3-(3-fluorophenyl)-2,2-dioxido-2,1,3-benzothiadiazol-1(3H)-yl]-N-methylpropan-1-amine]", "IC50": 12.2},
      {"compound": "CNCCCN1c2c(F)cccc2N(c2ccccc2)S1(=O)=O", "note": "[Example 39, 3-(7-fluoro-2,2-dioxido-3-phenyl-2,1,3-benzothiadiazol-1(3H)-yl)-N-methylpropan-1-amine]", "IC50": 29.3},
      {"compound": "CNCCCN1c2ccccc2N(c2ccc(F)cc2F)S1(=O)=O", "note": "[Example 75, 3-[3-(2,4-difluorophenyl)-2,2-dioxido-2,1,3-benzothiadiazol-1(3H)-yl]-N-methylpropan-1-amine hydrochloride]", "IC50": 4.17},
      {"compound": "CNCCCN1c2ccccc2N(c2ccc(F)cc2C)S1(=O)=O", "note": "[Example 62, 3-[3-(4-fluoro-2-methylphenyl)-2,2-dioxido-2,1,3-benzothiadiazol-1(3H)-yl]-N-methylpropan-1-amine]", "IC50": 50.9},
      {"compound": "CNCCCCN1c2ccccc2N(c2ccc(F)cc2Cl)S1(=O)=O", "note": "[Example 87, 4-[3-(2-chloro-4-fluorophenyl)-2,2-dioxido-2,1,3-benzothiadiazol-1(3H)-yl]-N-methylbutan-1-amine hydrochloride]", "IC50": 82},
      {"compound": "CCNCCCN1c2ccccc2N(c2c(F)cccc2F)S1(=O)=O", "note": "[Example 126, 3-[3-(2,6-difluorophenyl)-2,2-dioxido-2,1,3-benzothiadiazol-1(3H)-yl]-N-ethylpropan-1-amine hydrochloride]", "IC50": 15},
      {"compound": "CCNCCCN1c2ccccc2N(c2ccccc2F)S1(=O)=O", "note": "[Example 57, N-ethyl-3-[3-(2-fluorophenyl)-2,2-dioxido-2,1,3-benzothiadiazol-1(3H)-yl]propan-1-amine]", "IC50": 2.56},
      {"compound": "CNCCCN1c2ccccc2N(c2cccc(Cl)c2)S1(=O)=O", "note": "[Example 68, 3-[3-(3-Chlorophenyl)-2,2-dioxido-2,1,3-benzothiadiazol-1(3H)-yl]-N-methylpropan-1-amine hydrochloride]", "IC50": 84.1},
      {"compound": "O=S1(=O)N(CCCCNC2CCC2)c2ccccc2N1c1c(F)cccc1F", "note": "[Example 124, N-{4-[3-(2,6-difluorophenyl)-2,2-dioxido-2,1,3-benzothiadiazol-1(3H)-yl]butyl}cyclobutanamine hydrochloride]", "IC50": 132},
      {"compound": "CNCCCN1c2ccccc2N(c2ccc(C)cc2F)S1(=O)=O", "note": "[Example 108, 3-[3-(2-fluoro-4-methylphenyl)-2,2-dioxido-2,1,3-benzothiadiazol-1(3H)-yl]-N-methylpropan-1-amine]", "IC50": 4},
      {"compound": "CNCCCN1c2ccccc2N(c2ncccc2C)S1(=O)=O", "note": "[Example 27, N-methyl-3-[3-(3-methylpyridin-2-yl)-2,2-dioxido-2,1,3-benzothiadiazol-1(3H)-yl]propan-1-amine hydrochloride]", "IC50": 11.7},
      {"compound": "CNCCCN1c2ccccc2N(c2cc(C)ccn2)S1(=O)=O", "note": "[Example 30, N-methyl-3-[3-(4-methylpyridin-2-yl)-2,2-dioxido-2,1,3-benzothiadiazol-1(3H)-yl]propan-1-amine hydrochloride]", "IC50": 15.3},
      {"compound": "CC(C)NCCCN1c2ccccc2N(c2c(F)cccc2F)S1(=O)=O", "note": "[Example 127, 3-[3-(2,6-difluorophenyl)-2,2-dioxido-2,1,3-benzothiadiazol-1(3H)-yl]-N-isopropylpropan-1-amine hydrochloride]", "IC50": 148},
      {"compound": "CNCCCCN1c2ccccc2N(c2c(F)cc(F)cc2F)S1(=O)=O", "note": "[Example 81, 4-[2,2-Dioxido-3-(2,4,6-trifluorophenyl)-2,1,3-benzothiadiazol-1(3H)-yl]-N-methylbutan-1-amine hydrochloride]", "IC50": 19},
      {"compound": "CNCCCN1c2ccccc2N(c2cccc(OC(F)(F)F)c2)S1(=O)=O", "note": "[Example 49, 3-{2,2-dioxido-3-[3-(trifluoromethoxy)phenyl]-2,1,3-benzothiadiazol-1(3H)-yl}-N-methylpropan-1-amine hydrochloride]", "IC50": 147},
      {"compound": "CNCCCN1c2cccnc2N(c2ccccc2)S1(=O)=O", "note": "[Example 24, 3-(2,2-dioxido-3-phenyl[1,2,5]thiadiazolo[3,4-b]pyridin-1(3H)-yl)-N-methylpropan-1-amine]", "IC50": 60.9}
    ]}
  ]
}
